Data: article PMC9516332 (Frontiers in Oncology, 2022)
Like-named read-outs stand apart in the source and are kept apart here.

Legend:
[1] = biological target: panel of 255 wild-type kinases (Homo sapiens, UniProt P06241); assay: Kinase panel profiling at 1 µmol/L (MSA or IMAP), percentage inhibition; format: biochemical; details: kinase FYN [isoform a]; 1 µmol/L single concentration; read-out: %-inhibition at 1 µmol/L, FYN [isoform a]
[2] = biological target: panel of 255 wild-type kinases (Homo sapiens, UniProt Q13882); assay: as above; format: biochemical; details: BRK kinase assay; 1 µmol/L single concentration; read-out: %-inhibition BRK
[3] = biological target: panel of 255 wild-type kinases (Homo sapiens, UniProt Q9H422); assay: as above; format: biochemical; details: kinase HIPK3; 1 µmol/L single concentration; read-out: %-inhibition at 1 µmol/L, HIPK3
[4] = biological target: panel of 255 wild-type kinases (Homo sapiens, UniProt Q16816); assay: as above; format: biochemical; details: kinase PHKG1; 1 µmol/L single concentration; read-out: %-inhibition at 1 µmol/L, PHKG1
[5] = biological target: panel of 255 wild-type kinases (Homo sapiens, UniProt P48729); assay: as above; format: biochemical; details: kinase CK1α; 1 µmol/L single concentration; read-out: %-inhibition at 1 µmol/L, CK1α
AP-1060 (ETV6-NTRK3) = assay: Cell viability assay; details: read-out: IC50 in cell proliferation assay
134 cancer cell lines = assay: Cell viability assay (ATPlite, 72 hours), IC50 on cancer cell line panel

inhibition at 1 µM [1]: 32%
inhibition at 1 µM [2]: 53%
inhibition at 1 µM [3]: 3.75%
inhibition at 1 µM [4]: 25%
inhibition at 1 µM [5]: 8%
lower IC50 of the most sensitive cell line compared to the panel average (134 cancer cell lines; 134 cell line panel): more than 1000 fold
IC50 (134 cancer cell lines; HEC-6, read-out: IC50 in cell proliferation assay, HEC-6 cell line (EGFR p.A289V)): 2.51 µM
IC50 (134 cancer cell lines; Homo sapiens, 769-P, read-out: IC50 in cell proliferation assay, cell line 769-P): 0.032 µM
IC50 (134 cancer cell lines; Homo sapiens, 786-0, read-out: IC50 in cell proliferation assay, cell line 786-O): 3.04 µM
IC50 (134 cancer cell lines; Homo sapiens, A 172, read-out: IC50 in cell proliferation assay, cell line A-172): 3.62 µM
IC50 (134 cancer cell lines; Homo sapiens, A204, read-out: IC50 in cell proliferation assay, cell line A-204): 2.51 µM
IC50 (134 cancer cell lines; Homo sapiens, A498, read-out: IC50 in cell proliferation assay, cell line A-498): 2.57 µM
IC50 (134 cancer cell lines; Homo sapiens, A549, read-out: IC50 in cell proliferation assay, cell line A-549): 6.63 µM
IC50 (134 cancer cell lines; Homo sapiens, A704, read-out: IC50 in cell proliferation assay, cell line A-704): 3.91 µM
IC50 (134 cancer cell lines; Homo sapiens, A-375, read-out: IC50 in cell proliferation assay, cell line A-375 (BRAF p.V600E)): 3.46 µM
IC50 (134 cancer cell lines; Homo sapiens, A-427, read-out: IC50 in cell proliferation assay, cell line A-427): 2.89 µM
IC50 (134 cancer cell lines; Homo sapiens, ACHN, read-out: IC50 in cell proliferation assay, cell line ACHN): 0.011 µM
IC50 (134 cancer cell lines; Homo sapiens, AN3-CA, read-out: IC50 in cell proliferation assay, cell line AN3-CA (FGFR2 p.N549K)): 3.75 µM
IC50 (134 cancer cell lines; Homo sapiens, ASPC1, read-out: IC50 in cell proliferation assay, cell line AsPC-1): 5.82 µM
IC50 (134 cancer cell lines; Homo sapiens, AU565, read-out: IC50 in cell proliferation assay, cell line AU565 (ERBB2 amplification)): 0.068 µM
IC50 (134 cancer cell lines; Homo sapiens, BT-20, read-out: IC50 in cell proliferation assay, cell line BT-20): 5.62 µM
IC50 (134 cancer cell lines; Homo sapiens, BT-474, read-out: IC50 in cell proliferation assay, cell line BT-474 (ERBB2 amplification)): 0.037 µM
IC50 (134 cancer cell lines; Homo sapiens, BT-549, read-out: IC50 in cell proliferation assay, cell line BT-549): 3.68 µM
IC50 (134 cancer cell lines; Homo sapiens, BXPC-3, read-out: IC50 in cell proliferation assay, cell line BxPC-3): 4.06 µM
IC50 (134 cancer cell lines; Homo sapiens, C-33-A, read-out: IC50 in cell proliferation assay, cell line C-33 A): 0.04 µM
IC50 (134 cancer cell lines; Homo sapiens, CAL-27, read-out: IC50 in cell proliferation assay, cell line CAL-27): 0.011 µM
IC50 (134 cancer cell lines; Homo sapiens, CCF-STTG1, read-out: IC50 in cell proliferation assay, cell line CCF-STTG1): 5.61 µM
IC50 (134 cancer cell lines; Homo sapiens, CCRF-CEM, read-out: IC50 in cell proliferation assay, cell line CCRF-CEM): 3.27 µM
IC50 (134 cancer cell lines; Homo sapiens, COLO 205, read-out: IC50 in cell proliferation assay, cell line COLO 205 (BRAF p.V600E)): 4.28 µM
IC50 (134 cancer cell lines; Homo sapiens, COLO-829, read-out: IC50 in cell proliferation assay, cell line COLO 829 (BRAF p.V600E)): 6.02 µM
IC50 (134 cancer cell lines; Homo sapiens, DLD-1, read-out: IC50 in cell proliferation assay, cell line DLD-1): 3.24 µM
IC50 (134 cancer cell lines; Homo sapiens, DU-4475, read-out: IC50 in cell proliferation assay, cell line DU4475 (BRAF p.V600E)): 5.24 µM
IC50 (134 cancer cell lines; Homo sapiens, Daoy, read-out: IC50 in cell proliferation assay, cell line Daoy): 3.77 µM
IC50 (134 cancer cell lines; Homo sapiens, DoTc2-4510, read-out: IC50 in cell proliferation assay, cell line DoTc2 4510): 0.012 µM
IC50 (134 cancer cell lines; Homo sapiens, EOL1, read-out: IC50 in cell proliferation assay, cell line EoL-1 (FIP1L1-PDGFRA)): 0.72 µM
IC50 (134 cancer cell lines; Homo sapiens, FaDu, read-out: IC50 in cell proliferation assay, cell line FaDu): 0.013 µM
IC50 (134 cancer cell lines; Homo sapiens, G-361, read-out: IC50 in cell proliferation assay, cell line G-361 (BRAF p.V600E)): 4.11 µM
IC50 (134 cancer cell lines; Homo sapiens, HCC827, read-out: IC50 in cell proliferation assay, cell line HCC827 (EGFR exon19del)): 0.00113 µM
IC50 (134 cancer cell lines; Homo sapiens, HCC4006, read-out: IC50 in cell proliferation assay, cell line HCC4006 (EGFR exon19del)): 0.00119 µM
IC50 (134 cancer cell lines; Homo sapiens, HCT-15, read-out: IC50 in cell proliferation assay, cell line HCT 15): 3.45 µM
IC50 (134 cancer cell lines; Homo sapiens, HCT-116, read-out: IC50 in cell proliferation assay, cell line HCT 116): 2.3 µM
IC50 (134 cancer cell lines; Homo sapiens, HEC-1, read-out: IC50 in cell proliferation assay, HEC-1 cell line): 1.91 µM
IC50 (134 cancer cell lines; Homo sapiens, HEC-1B, read-out: IC50 in cell proliferation assay, HEC-1-B cell line (EGFR p.A864V)): 0.014 µM
IC50 (134 cancer cell lines; Homo sapiens, HL-60, read-out: IC50 in cell proliferation assay, HL-60 cell line): 1.74 µM
IC50 (134 cancer cell lines; Homo sapiens, HT, read-out: IC50 in cell proliferation assay, HT cell line): 3.76 µM
IC50 (134 cancer cell lines; Homo sapiens, HT-1080, read-out: IC50 in cell proliferation assay, HT-1080 cell line): 2.79 µM
IC50 (134 cancer cell lines; Homo sapiens, Hs746T, read-out: IC50 in cell proliferation assay, Hs 746.T cell line (MET exon14skip + amplification)): 3.12 µM
IC50 (134 cancer cell lines; Homo sapiens, Hs-578T, read-out: IC50 in cell proliferation assay, Hs 578T cell line): 3.09 µM
IC50 (134 cancer cell lines; Homo sapiens, HuTu80, read-out: IC50 in cell proliferation assay, HuTu 80 cell line): 4.06 µM
IC50 (134 cancer cell lines; Homo sapiens, J82, read-out: IC50 in cell proliferation assay, J82 cell line): 3.95 µM
IC50 (134 cancer cell lines; Homo sapiens, Jurkat E6.1, read-out: IC50 in cell proliferation assay, Jurkat E6.1 cell line): 3.18 µM
IC50 (134 cancer cell lines; Homo sapiens, K562, read-out: IC50 in cell proliferation assay, K-562 cell line): 3.44 µM
IC50 (134 cancer cell lines; Homo sapiens, KATO III, read-out: IC50 in cell proliferation assay, KATO III cell line (FGFR2 amplification)): 2.96 µM
IC50 (134 cancer cell lines; Homo sapiens, KG-1, read-out: IC50 in cell proliferation assay, KG-1 cell line (FGFR1OP2-FGFR1)): 2.57 µM
IC50 (134 cancer cell lines; Homo sapiens, KLE, read-out: IC50 in cell proliferation assay, KLE cell line): 3.44 µM
IC50 (134 cancer cell lines; Homo sapiens, KMS-11, read-out: IC50 in cell proliferation assay, KMS-11 cell line (FGFR3 p.Y373C)): 3.54 µM
IC50 (134 cancer cell lines; Homo sapiens, KU812, read-out: IC50 in cell proliferation assay, Ku812 cell line): 3.2 µM
IC50 (134 cancer cell lines; Homo sapiens, Kasumi 1, read-out: IC50 in cell proliferation assay, Kasumi-1 cell line (KIT p.N822K)): 1.63 µM
IC50 (134 cancer cell lines; Homo sapiens, LC-2-ad, read-out: IC50 in cell proliferation assay, LC-2/ad cell line (CCDC6-RET)): 2.89 µM
IC50 (134 cancer cell lines; Homo sapiens, LNCaP-Clone-FGC, read-out: IC50 in cell proliferation assay, LNCaP clone FGC cell line): 7.97 µM
IC50 (134 cancer cell lines; Homo sapiens, LS174T, read-out: IC50 in cell proliferation assay, LS174T cell line): 2.67 µM
IC50 (134 cancer cell lines; Homo sapiens, LS-411N, read-out: IC50 in cell proliferation assay, LS411N cell line (BRAF p.V600E)): 4.24 µM
IC50 (134 cancer cell lines; Homo sapiens, LoVo, read-out: IC50 in cell proliferation assay, LoVo cell line): 4.3 µM
IC50 (134 cancer cell lines; Homo sapiens, MCF7, read-out: IC50 in cell proliferation assay, MCF-7 cell line): 12.9 µM
IC50 (134 cancer cell lines; Homo sapiens, MDA-MB-231, read-out: IC50 in cell proliferation assay, MDA-MB-231 cell line): 3.69 µM
IC50 (134 cancer cell lines; Homo sapiens, MDA-MB-453, read-out: IC50 in cell proliferation assay, MDA-MB-453 cell line): 3.25 µM
IC50 (134 cancer cell lines; Homo sapiens, MDA-MB-468, read-out: IC50 in cell proliferation assay, MDA-MB-468 cell line): 0.033 µM
IC50 (134 cancer cell lines; Homo sapiens, MG-63, read-out: IC50 in cell proliferation assay, MG-63 cell line): 4 µM
Structure (SMILES): COc1cc2ncnc(Nc3ccc(F)c(Cl)c3)c2cc1NC(=O)/C=C/CN1CCCCC1 [dacomitinib]
IC50 (AP-1060 (ETV6-NTRK3)): 3.46 µM
